Laboratory results reported in the supplement of paper PMC4862054.

Legend:
Conditions in all cases: incubation time: 72 h
BT-474 = experiment: drug sensitivity score (DSS), CellTiter-Glo (DSS (AUC-based score)); higher = stronger drug effect (viability inhibition or cytotoxicity); extreme values may be limits of the assay
In short: (§1)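 For 72 h, breast cancer cell lines seeded at 20 µl suspension per well in 384-well plates were incubated with compound at 5 concentrations in 10-fold steps spanning a 10,000-fold range that differed by compound. The first reading was CellTox Green fluorescence at 485/520 nm, and the second was CellTiter-Glo luminescence after 10 min at room temperature. Both were normalised per plate to 0.1 % DMSO and a positive kill control, and the drug sensitivity score was obtained from the area under the fitted dose-response curve.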

BT-549 = experiment: as above
In short: as §1

CAL-120 [1] = experiment: as above
In short: as §1

CAL-148 = experiment: as above
In short: as §1

CAL-51 = experiment: as above
In short: as §1

CAL-85-1 = experiment: as above
In short: as §1

DU-4475 = experiment: as above
In short: as §1

HCC1143 [2] = experiment: as above
In short: as §1

HCC1599 [3] = experiment: as above
In short: as §1

HCC1937 = experiment: as above
In short: as §1

HDQ-P1 = experiment: as above
In short: as §1

Hs578T = experiment: as above
In short: as §1

MCF-10A = experiment: as above
In short: as §1

MDA-MB-231 = experiment: as above
In short: as §1

MDA-MB-436 = experiment: as above
In short: as §1

MDA-MB-453 [4] = experiment: as above
In short: as §1

MDA-MB-468 [5] = experiment: as above
In short: as §1

MFM-223 = experiment: as above
In short: as §1

SK-BR-3 = experiment: as above
In short: as §1

CAL-120 [6] = experiment: drug sensitivity score (DSS), CellTox Green (DSS (AUC-based score)); higher = stronger drug effect (viability inhibition or cytotoxicity); extreme values may be limits of the assay
In short: as §1

HCC1143 [7] = experiment: as above
In short: as §1

HCC1599 [8] = experiment: as above
In short: as §1

MDA-MB-453 [9] = experiment: as above
In short: as §1

MDA-MB-468 [10] = experiment: as above
In short: as §1

Row | SMILES | drug sensitivity score (BT-474) | drug sensitivity score (BT-549) | drug sensitivity score (CAL-120 [1]) | drug sensitivity score (CAL-148) | drug sensitivity score (CAL-51) | drug sensitivity score (CAL-85-1) | drug sensitivity score (DU-4475) | drug sensitivity score (HCC1143 [2]) | drug sensitivity score (HCC1599 [3]) | drug sensitivity score (HCC1937) | drug sensitivity score (HDQ-P1) | drug sensitivity score (Hs578T) | drug sensitivity score (MCF-10A) | drug sensitivity score (MDA-MB-231) | drug sensitivity score (MDA-MB-436) | drug sensitivity score (MDA-MB-453 [4]) | drug sensitivity score (MDA-MB-468 [5]) | drug sensitivity score (MFM-223) | drug sensitivity score (SK-BR-3) | drug sensitivity score (CAL-120 [6]) | drug sensitivity score (HCC1143 [7]) | drug sensitivity score (HCC1599 [8]) | drug sensitivity score (MDA-MB-453 [9]) | drug sensitivity score (MDA-MB-468 [10])
1 | Nc1nc(Cl)nc2c1ncn2[C@H]1C[C@H](O)[C@@H](CO)O1 [Cladribine] | 0 | 6.43 | 1.39 | 0 | 0 | 0 | 0 | 0 | 0 | 0 | 0 | 0 | 0 | 0 | 0 | 0 | 0.301 | 0 | 0 | 0 | 1.86 | 0 | 0 | 14.3
2 | C=CC[C@@H]1/C=C(\C)C[C@H](C)C[C@H](OC)[C@H]2O[C@@](O)(C(=O)C(=O)N3CCCC[C@H]3C(=O)O[C@H](/C(C)=C/[C@@H]3CC[C@@H](O)[C@H](OC)C3)[C@H](C)[C@@H](O)CC1=O)[C@H](C)C[C@@H]2OC [Tacrolimus] | 0.128 | 0 | 0 | 0 | 0 | 0 | 0 | 0 | 0 | 0 | 0 | 0 | 0 | 0 | 0 | 0 | 0 | 0 | 0 | 0 | 0 | 0 | 0 | 0
3 | CS(=O)(=O)c1ccc(C(=O)Nc2ccc(Cl)c(-c3ccccn3)c2)c(Cl)c1 [Vismodegib] | 0 | 0 | 0 | 0 | 0 | 0 | 0 | 0 | 0 | 0 | 0 | 0 | 0 | 0 | 0 | 0 | 0 | 0 | 0 | 0 | 0 | 0 | 0 | 0
4 | COc1cccc2cc(-c3nc([C@H]4CC[C@H](C(=O)O)CC4)n4ncnc(N)c34)[nH]c12 [OSI-027] | 4.09 | 6.24 | 5.45 | 2.6 | 4.69 | 5.52 | 2.39 | 2.97 | 0 | 3.56 | 7.43 | 2.44 | 4.28 | 3.06 | 4.39 | 8 | 4.37 | 6.51 | 13.4 | 0 | 0 | 0 | 0 | 0
5 | N#CC[C@H](C1CCCC1)n1cc(-c2ncnc3[nH]ccc23)cn1 [Ruxolitinib] | 0.693 | 0 | 1.35 | 0 | 0 | 0 | 0 | 0 | 0 | 0 | 0 | 0 | 0 | 0 | 0 | 0 | 0.173 | 1.49 | 0 | 0 | 0 | 0 | 0 | 0
6 | CN1CC[C@H](c2c(O)cc(O)c3c(=O)cc(-c4ccccc4Cl)oc23)[C@H](O)C1 [Alvocidib] | 16.9 | 17.7 | 14.1 | 11.4 | 19 | 16.3 | 17.3 | 14.9 | 14.7 | 13.2 | 16.5 | 16.2 | 16.2 | 19.1 | 18.8 | 12.8 | 18.1 | 16.1 | 19.8 | 1.81 | 0 | 0 | 0 | 0
7 | CN1CCC(COc2cnc(-c3cccc(Cn4nc(-c5cccc(C#N)c5)ccc4=O)c3)nc2)CC1 | 0 | 0 | 0 | 0 | 0 | 0 | 0 | 0 | 0 | 0 | 0 | 0 | 0 | 0 | 1.23 | 0 | 0 | 0 | 0 | 0 | 0 | 0 | 0 | 0
8 | S=c1[nH]cnc2nc[nH]c12 [Mercaptopurine] | 5.51 | 0 | 4.08 | 0 | 0 | 1.24 | 4 | 0 | 5.32 | 8.73 | 9.67 | 6.04 | 0 | 7.35 | 0.565 | 0 | 0 | 0 | 0 | 0 | 0 | 0 | 0 | 0
9 | COc1cccc2c1C(=O)c1c(O)c3c(c(O)c1C2=O)C[C@@](O)(C(=O)CO)C[C@@H]3O[C@H]1C[C@H](N)[C@H](O)[C@H](C)O1 [Doxorubicin] | 7.08 | 8.09 | 1.5 | 8.35 | 12.4 | 2.97 | 8.65 | 1.04 | 1.68 | 0 | 2.13 | 2.18 | 1.13 | 4.21 | 4.44 | 2.56 | 9.32 | 0 | 6.19 | 0 | 0 | 0 | 0 | 5.83
10 | CN(C)C/C=C/C(=O)Nc1cc2c(Nc3ccc(F)c(Cl)c3)ncnc2cc1O[C@H]1CCOC1 [Afatinib] | 0 | 0.0448 | 0 | 3.9 | 0 | 6.39 | 0 | 0 | 0 | 0 | 8.44 | 0 | 17.4 | 0 | 0 | 4.69 | 2.66 | 0 | 17.8 | 0 | 1.18 | 0 | 0 | 0
11 | CO[C@H]1C[C@@H]2CC[C@@H](C)[C@@](O)(O2)C(=O)C(=O)N2CCCC[C@H]2C(=O)O[C@H]([C@H](C)C[C@@H]2CC[C@@H](OC(=O)C(C)(CO)CO)[C@H](OC)C2)CC(=O)[C@H](C)/C=C(\C)[C@@H](O)[C@@H](OC)C(=O)[C@H](C)C[C@H](C)/C=C/C=C/C=C/1C [Temsirolimus] | 2.49 | 12.7 | 7.34 | 8.93 | 11.3 | 9.28 | 5.2 | 8.92 | 0 | 6.15 | 4.08 | 10.1 | 0 | 0 | 3.51 | 9.78 | 14.7 | 7.59 | 11 | 0 | 0 | 0 | 0 | 0
12 | CC(=O)O[C@]1(C(C)=O)CC[C@H]2[C@@H]3C=C(C)C4=CC(=O)CC[C@]4(C)[C@H]3CC[C@@]21C [Megestrol acetate] | 0 | 0 | 0 | 0 | 0 | 0 | 0 | 0 | 0 | 0 | 0 | 0 | 0 | 0 | 0 | 0 | 0 | 0 | 0 | 0 | 0 | 0 | 0 | 0
13 | Nc1ccn([C@@H]2O[C@H](CO)[C@@H](O)[C@@H]2O)c(=O)n1 [Cytarabine] | 0.361 | 7.56 | 0.601 | 11.3 | 13.4 | 0 | 3.25 | 3.36 | 0 | 0 | 1.06 | 2.8 | 0 | 0 | 10.5 | 0 | 4.8 | 0 | 12.2 | 0 | 0 | 0 | 0 | 0
14 | O=C(c1ccc(C(=O)N2CCC(N3CCCC3)CC2)c(Nc2ccccc2)c1)N1CCC(N2CCCC2)CC1 [UNC1215] | 0 | 0 | 0 | 0 | 0 | 0 | 0 | 0 | 0 | 0 | 0 | 0 | 0 | 0 | 0 | 0 | 0 | 0 | 0 | 0 | 0.868 | 0 | 0 | 0
